Measurements: patent US20240079083A1, “USING BIPARTITE NETWORKS TO DETERMINE INTERACTIONS BETWEEN ANALYTES AND CHEMICAL TREATMENTS” (UT-Battelle, LLC, priority 2022, published 2024)

Experiments:
Aspergillus fumigatus [1] = assay: Direct route: production of known and putative specialized metabolites under exogenous treatments, 25° C. (targeted LC-MS, bipartite network); assay type: cell-based; conditions: for broadcasting PageRank of the treatments: minimum-maximum normalized; for broadcasting PageRank of the treatments / node out-strength of the treatments (effect on triggering metabolite production): rank among treatments
Excerpt: (§1) Several examples of a bipartite network framework of treatments and metabolomic outputs will now be described. Bipartite networks are built to quantify the relationship between metabolites and the sources triggering their production, such as various exogenous biomolecules or compounds. As discussed above, a bipartite network (or graph) is a collection of nodes connected by lines named edges. The nodes represent the entities or elements of a system, and the edges represent the interaction or relationship amongst the features. For example, in cell metabolism, a metabolic network represents the biochemical reactions amongst substrates that result in products. The nodes of the metabolic network represent the substrates, and the edges represent the metabolic reactions amongst the substrates. For example, this framework can assess the effect of exogenous compounds on the production of specialized microbial metabolites. The nodes can be classified into two types: the treatments and the specialized metabolites, resulting in a bipartite network. The edges represent the magnitude of up- or down-regulation of specialized metabolites caused by the treatments compared to a controlled case (measured by the magnitude of log2 fold change using processed spectral data from targeted LC-MS analysis).
The bipartite network provides an in-depth quantification and clear visual representation of a treatment's ability to trigger the production of various specialized metabolites. Two routes are provided to assess specialized metabolite production using the bipartite network formulation, as shown in FIG. 15. The first is the direct route 1502 to determine the biosynthesis of known and putative metabolites, whereas the second is the auxiliary route 1504 to assess the production of unknown analytes. In the direct route 1502, the network nodes include treatments that elucidate known and putative metabolites by a microbe. Network centrality measurements 1506 are used to rank the treatments and the specialized metabolites. Those measurements can be used to identify the most influential nodes in the bipartite network. […] The treatments can be ranked based on their capability to trigger metabolite production, and the metabolites can be classified based on their popularity in being activated by various treatments. In the auxiliary route, the bipartite networks are built using analyte peaks extracted from post-processed spectral data. Further, the systems and methods of the present disclosure analyze the edges and neighborhoods of nodes to distinguish unique analytes among the total pool.
The bipartite network framework was used in this example to reveal the effect of various chitooligosaccharides and lipid treatments on triggering the production of specialized metabolites in Aspergillus fumigatus. Various chitooligosaccharides and lipids were applied as exogenous treatments since they are common constituents found in most fungi. Moreover, it has been previously shown that lipids influence fungal metabolomics; however, the impacts of chitooligosaccharides have remained unknown. In contrast, chitooligosaccharides are reported to have antifungal activity, which might potentially influence the metabolomic profile in Aspergillus species. This example highlights the influence of temperature on the production of specialized metabolites by conducting the experiments at 25 and 37° C. Aspergillus fumigatus is generally examined at 25° C. to explore the extent of its metabolomic capabilities or its lifestyle as a soilborne saprotroph that recycles environmental carbon and nitrogen. However, the fungus is also an opportunistic human pathogen and is commonly examined at 37° C. for its ability to cause aspergillosis, a lung disease found in immunocompromised patients. […]

Aspergillus fumigatus [2] = assay: Auxiliary route: untargeted metabolomic profiling of the treatments, 25° C. (FCROS, bipartite network); assay type: cell-based
Excerpt: (§2) The auxiliary route follows an untargeted metabolomic profiling of the treatments. […] In the direct route, a peak area cutoff of 5×10^5 was used to detect signals with significant peaks between a treatment and solvent control. Although their peak area cutoff of 5×10^5 eliminates most noise, it is a linear cutoff and leaves some residual noise in the analysis due to column creep. Therefore, the dataset for the auxiliary route can be curated from the experimental study using baseline correction preprocessing tools. Following the processes defined by “Dynamics of Metabolite Induction in Fungal Co-cultures by Metabolomics at Both Volatile and Non-volatile Levels”, Front. Microbiol., 5 Feb. 2018 Sec. Antimicrobials, Resistance and Chemotherapy, Azzollini et al., peaks can be picked using GridMass and aligned using RANSAC alignment or another suitable alignment tool. Peak data can then be matched to known profiles in KEGG and LipidMap.
(§3) Peak significance was determined upon FCROS scoring. Non-significant analytes were not included in the network. An interactive map of the network illustrating the details of each analyte (m/z ratio, retention times, p-values, etc.) can be generated.
The untargeted extraction of statistically relevant peaks using the auxiliary route can yield a significant number of analytes for potential exploration. The edges and neighbors of the nodes in the network can be used to determine which analytes to be first considered for targeted exploration. Analytes of particular interest express both […] depending on the treatment considered. Additionally, analytes of extreme up- and down-regulation can be of interest along with the node degree values of the analytes. FIG. 13D illustrates significant peaks with log2 fold change greater than 1 or less than −1. The total number of interactions (edges in the network) found with the auxiliary route is considerably higher compared to the network in the direct route. […] At 25 C, analytes ID 26 and ID 105 were matched to fraxetin via the KEGG database query. […] Analyte ID 222 was matched to ICAS #18 from the LipidMap database. […] At the same time, no single highly produced analyte is triggered by all three chitooligosaccharides.

Aspergillus fumigatus [3] = assay: Direct route: production of specialized metabolites under exogenous treatments, 37° C.; assay type: cell-based
Excerpt: as §1
The bipartite network provides an in-depth quantification and clear visual representation of a treatment's ability to trigger the production of various specialized metabolites. Two routes are provided to assess specialized metabolite production using the bipartite network formulation, as shown in FIG. 15. The first is the direct route 1502 to determine the biosynthesis of known and putative metabolites, whereas the second is the auxiliary route 1504 to assess the production of unknown analytes. In the direct route 1502, the network nodes include treatments that elucidate known and putative metabolites by a microbe. Network centrality measurements 1506 are used to rank the treatments and the specialized metabolites. […]

Aspergillus fumigatus [4] = assay: Auxiliary route: untargeted analytes under the treatments, 37° C.; assay type: cell-based
Excerpt: as §2, §3
Considering the analytes from the network at 37° C. shown in FIG. 14D, twelve significant analyte peaks with log2 fold change intensities greater than 1 were extracted from the processed data. All three CO treatments at 37° C. triggered no shared analytes. Nor did the two lipid treatments trigger a shared analyte. Ten of the twelve analytes with log2 fold change intensities greater than 1 or less than −1 are uniquely triggered by a single treatment (i.e., analytes with node degree 1), as shown in FIG. 14D. Of the twelve significant extracted analyte peaks, eleven were identified from database queries. Analytes identified by KEGG were putative metabolites, hellebrigenin 3-acetate (ID 10), fraxetin (ID 16), beta-cyclopiazonate (ID 70), phenylbutazone (ID 71), borrerine (ID 89), clofibrate (ID 110), alangimarine (IDs 163 and 164), and sulindac (IDs 168 and 169). LipidMaps identified 6′-hydroxysiphonaxanthin decenoate (ID 21). […] There are no connections in ID numbers between the 25° C. and 37° C. experiments.

Aspergillus fumigatus [5] = conditions: 37° C.; cited from earlier work

Row | Compound | number of metabolites triggered (Aspergillus fumigatus [1]) | number of unique metabolites triggered (Aspergillus fumigatus [1]) | broadcasting PageRank of the treatments (Aspergillus fumigatus [1]) | node out-strength of the treatments (effect on triggering metabolite production) (Aspergillus fumigatus [1]) | production of analyte 16 (Aspergillus fumigatus [2]) | effectiveness of treatment at triggering metabolite production (node strength and PageRank) (Aspergillus fumigatus [3]) | regulation of analyte 163 (Aspergillus fumigatus [4]) | regulation of analyte 168 (Aspergillus fumigatus [4]) | regulation of fraxetin (analytes ID 26 and ID 105) (Aspergillus fumigatus [2]; log2 fold change greater than 1 or less than −1) | regulation of analyte ID 90 (Aspergillus fumigatus [4]) | broadcasting PageRank of the treatments (Aspergillus fumigatus [1]; listed as Oleic acid) | germination (Aspergillus fumigatus [5]) | regulation of ICAS #18 (analyte ID 222) (Aspergillus fumigatus [2]; with respect to the control)
1 | CC(=O)N[C@H]1[C@H](O[C@H]2[C@H](O)[C@@H](NC(C)=O)C(O)O[C@@H]2CO)O[C@H](CO)[C@@H](O[C@@H]2O[C@H](CO)[C@@H](O[C@@H]3O[C@H](CO)[C@@H](O)[C@H](O)[C@H]3NC(C)=O)[C@H](O)[C@H]2NC(C)=O)[C@@H]1O (some centres unmarked) [CO4] | six | two | most effective treatment | highest effect on triggering metabolite production | significantly produced | poor at triggering the production of metabolites | downregulated | downregulated | – | – | – | – | –
2 | CC(=O)N[C@H]1[C@H](O[C@H]2[C@H](O)[C@@H](NC(C)=O)[C@H](O[C@H]3[C@H](O)[C@@H](NC(C)=O)[C@H](O[C@H]4[C@H](O)[C@@H](NC(C)=O)C(O)O[C@@H]4CO)O[C@@H]3CO)O[C@@H]2CO)O[C@H](CO)[C@@H](O[C@@H]2O[C@H](CO)[C@@H](O[C@@H]3O[C@H](CO)[C@@H](O[C@@H]4O[C@H](CO)[C@@H](O[C@@H]5O[C@H](CO)[C@@H](O)[C@H](O)[C@H]5NC(C)=O)[C@H](O)[C@H]4NC(C)=O)[C@H](O)[C@H]3NC(C)=O)[C@H](O)[C@H]2NC(C)=O)[C@@H]1O (some centres unmarked) [CO8] | – | – | followed by CO8 | minor influence on inducing metabolite production | – | – | upregulated | – | – | – | – | – | –
3 | CC(=O)N[C@H]1[C@H](O[C@H]2[C@H](O)[C@@H](NC(C)=O)[C@H](O[C@H]3[C@H](O)[C@@H](NC(C)=O)C(O)O[C@@H]3CO)O[C@@H]2CO)O[C@H](CO)[C@@H](O[C@@H]2O[C@H](CO)[C@@H](O[C@@H]3O[C@H](CO)[C@@H](O)[C@H](O)[C@H]3NC(C)=O)[C@H](O)[C@H]2NC(C)=O)[C@@H]1O (some centres unmarked) [CO5] | – | one | – | – | significantly produced | – | – | – | upregulated | upregulated | – | – | –
4 | CCCCCCCC/C=C\CCCCCCCC(=O)O [oleic acid] | five | two | – | then oleic acid | – | poor at triggering the production of metabolites | – | downregulated | – | – | higher broadcasting PageRank value than CO5 | inducer of germination | –
5 | CCCCCCCCCCCCCCCC(=O)O [palmitic acid] | – | – | least broadcasting PageRank measure | minor influence on inducing metabolite production | – | most effective treatment on metabolite production | upregulated | upregulated | – | upregulated | – | – | significantly down regulates
